# Data published in publication PMC6112376, “Comprehensive Analyses and Prioritization of Tox21 10K Chemicals Affecting Mitochondrial Function by in-Depth Mechanistic Studies” (Environmental Health Perspectives, 2018).
# Where two headings read alike, the source gives them in different places.
# Key:
# [1] = test system: HeLa cells expressing YFP-Parkin; assay: Parkin translocation assay; assay type: cell-based, human; details: HeLa cells stably expressing YFP-Parkin; treated for 2 h
# HepG2 cells [2] = assay: ROS-Glo hydrogen peroxide (ROS) assay; assay type: cell-based, human; details: 2 h treatment, mean±SD of three experiments
# [3] = test system: mitochondrial respiratory chain complex V; assay type: biochemical, rat
# [4] = target: T1, mitochondrial respiratory chain complex II (Rattus norvegicus, UniProt P21913+Q641Z9+Q6PCT8+Q920L2); assay: Respiratory chain complex II activity; assay type: biochemical; details: tested up to 100μM
# T1 construct: Submitochondrial particles were prepared by subjecting the intact rat mitochondria, isolated as described above, to three successive freeze–thaw cycles; from tissue; host or cells: rat liver mitochondria (submitochondrial particles)
# T1 sequence (Q920L2 35-656): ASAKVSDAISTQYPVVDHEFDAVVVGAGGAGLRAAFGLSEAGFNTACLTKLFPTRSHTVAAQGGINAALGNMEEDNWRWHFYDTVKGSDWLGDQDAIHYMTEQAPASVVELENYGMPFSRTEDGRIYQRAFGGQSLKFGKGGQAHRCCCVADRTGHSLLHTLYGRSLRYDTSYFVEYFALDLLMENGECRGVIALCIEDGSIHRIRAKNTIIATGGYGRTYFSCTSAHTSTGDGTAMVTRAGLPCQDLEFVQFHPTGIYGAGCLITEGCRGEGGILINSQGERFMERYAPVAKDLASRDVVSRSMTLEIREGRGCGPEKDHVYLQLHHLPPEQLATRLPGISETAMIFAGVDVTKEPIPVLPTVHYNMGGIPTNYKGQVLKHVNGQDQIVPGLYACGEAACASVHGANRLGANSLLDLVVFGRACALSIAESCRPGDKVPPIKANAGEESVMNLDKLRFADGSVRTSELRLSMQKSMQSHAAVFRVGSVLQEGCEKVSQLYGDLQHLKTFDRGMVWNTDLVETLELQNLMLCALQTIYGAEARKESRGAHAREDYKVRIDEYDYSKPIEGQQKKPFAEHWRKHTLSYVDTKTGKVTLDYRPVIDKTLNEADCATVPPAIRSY
# T1 sequence (P21913 31-282): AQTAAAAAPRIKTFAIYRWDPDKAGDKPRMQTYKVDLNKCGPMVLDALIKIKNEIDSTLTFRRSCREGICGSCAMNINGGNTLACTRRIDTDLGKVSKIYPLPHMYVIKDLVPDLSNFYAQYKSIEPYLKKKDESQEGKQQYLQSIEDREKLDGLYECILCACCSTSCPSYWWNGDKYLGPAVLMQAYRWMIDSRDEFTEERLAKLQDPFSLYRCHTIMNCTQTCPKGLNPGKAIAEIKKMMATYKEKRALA
# T1 sequence (Q641Z9 1-169): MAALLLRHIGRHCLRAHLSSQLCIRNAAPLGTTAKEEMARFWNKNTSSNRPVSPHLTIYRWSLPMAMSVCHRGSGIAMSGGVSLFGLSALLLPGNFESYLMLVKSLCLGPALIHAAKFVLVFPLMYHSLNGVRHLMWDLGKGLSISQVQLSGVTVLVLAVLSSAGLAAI
# T1 sequence (Q6PCT8 57-159): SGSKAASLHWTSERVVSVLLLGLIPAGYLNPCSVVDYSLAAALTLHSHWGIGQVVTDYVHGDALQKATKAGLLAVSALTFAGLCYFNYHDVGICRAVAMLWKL
# [5] = test system: mitochondrial respiratory chain complex I; assay type: biochemical, rat; details: at 100μM
# [6] = test system: mitochondrial respiratory chain complex III; assay type: biochemical, rat
# HepG2 cells [7] = assay: cells; details: Homo sapiens; for Emax: HepG2, read-out: MMP assays efficacy (%) HepG2
# HepG2 cells [8] = details: cited from earlier work
# HepG2 cells [9] = assay: Intracellular ATP content (cell viability) assay; assay type: cell-based, human; details: Homo sapiens, HepG2, 40 h treatment, mean±SD of three experiments
# [10] = test system: isolated rat liver mitochondria; assay: Oxygen consumption, Clark-type oxygen electrode; assay type: biochemical; details: for I-ADP, % of control (O2 consumption rate): glutamate/malate driven state 3 respiration; for I-ADP, % of control (O2 consumption rate) / I-sub, % of control (O2 consumption rate) / II-ADP, % of control (O2 consumption rate) / II-sub, % of control (O2 consumption rate): isolated rat liver mitochondria; for I-sub, % of control (O2 consumption rate): glutamate/malate driven state 4 respiration; for II-ADP, % of control (O2 consumption rate): succinate-driven state 3 respiration; for II-sub, % of control (O2 consumption rate): succinate-driven state 4 respiration
# hNSC = assay: MMP assay in human neural stem cells (hNSC); assay type: cell-based; details: Homo sapiens, Neural stem cell; 1 h treatment; fresh re-sourced stocks; mean±SD of three experiments; read-out: hNSC IC50 (MMP)
# rat primary hepatocytes = assay: MMP assay in rat primary hepatocytes; details: for Rat hepatocytes (efficacy) (MMP): % of positive control, mean±SD of three experiments; for IC50: Rattus norvegicus, Hepatocyte; for MMP assays efficacy (%) Rat Hepatocytes: mean ± SD of three experiments
# [11] = test system: Nrf2/ARE (ARE-bla HepG2 cells); assay: ARE β-lactamase reporter gene assay; assay type: cell-based, human; details: 16 h incubation, mean±SD of three experiments
# [12] = test system: Caenorhabditis elegans (Bristol N2); assay: C. elegans larval development and growth assay
# [13] = test system: Caenorhabditis elegans strain PE255; assay: In vivo C. elegans ATP status assay
# [14] = test system: p53 (p53-bla HCT-116 cells); assay: p53 β-lactamase reporter gene assay; assay type: cell-based, human; details: 16 h incubation; mean±SD of three experiments
# [15] = test system: mitochondrial respiratory chain complex IV; assay type: biochemical, rat
# [16] = HepG2, 1 h, read-out: HepG2 IC50 Galactose (MMP)
# [17] = HepG2, 1 h, read-out: HepG2 IC50 Glucose (MMP)
# [18] = HepG2, read-out: MMP assays IC50 (µM) HepG2
# [19] = 5 mM glucose, read-out: ATP (HepG2, glucose) IC50
# [20] = 10 mM galactose, read-out: ATP (HepG2, galactose) IC50
# [21] = 1 h, read-out: Rat hepatocytes IC50 (MMP)
# [22] = read-out: MMP assays IC50 (µM) Rat Hepatocytes
smiles,measurement,setting,value
COc1cc2c(cc1OC)-c1cc3ccc(OC)c(OC)c3c[n+]1CC2 [Palmatine chloride hydrate],Parkin recruitment,[1],Inactive
same,ROS (HepG2) EC50,HepG2 cells [2],Inactive
same,Complex V % inhibition (activity call),[3],Inactive
same,Complex II % inhibition (activity call),[4],Inactive
same,Complex I % inhibition,[5],12.3±3.05 at 100μM %
same,Complex III % inhibition (activity call),[6],Inactive
same,IC50,HepG2 cells [7]; [16],70.6 ± 4.79 µM
same,IC50,HepG2 cells [7]; [17],55.7 ± 17.9 µM
same,IC50,HepG2 cells [7]; [18],12.6 µM
same,Emax,HepG2 cells [7],86%
same,MMP assays efficacy (%) qHTS-HepG2,HepG2 cells [8],-99±8%
same,IC50,"HepG2 cells [8]; read-out: MMP assays IC50 (µM), qHTS-HepG2",22.7 ± 5.23 µM
same,IC50,HepG2 cells [9]; [19],19 ± 9.49 µM
same,IC50,HepG2 cells [9]; [20],27.1 ± 8.93 µM
same,"I-ADP, % of control (O2 consumption rate)",[10]; 0.8 µM,91 (32.3) % of control
same,"I-sub, % of control (O2 consumption rate)",[10]; 0.8 µM,114 (10.9) % of control
same,"II-ADP, % of control (O2 consumption rate)",[10]; 0.8 µM,96 (51.6) % of control
same,"II-sub, % of control (O2 consumption rate)",[10]; 0.8 µM,119 (19.5) % of control
same,"I-ADP, % of control (O2 consumption rate)",[10]; 4 µM,76 (27.3) % of control
same,"I-sub, % of control (O2 consumption rate)",[10]; 4 µM,105 (10.1) % of control
same,"II-ADP, % of control (O2 consumption rate)",[10]; 4 µM,89 (47.6) % of control
same,"II-sub, % of control (O2 consumption rate)",[10]; 4 µM,103 (16.9) % of control
same,"I-ADP, % of control (O2 consumption rate)",[10]; 20 µM,70 (25.0) % of control
same,"I-sub, % of control (O2 consumption rate)",[10]; 20 µM,114 (10.9) % of control
same,"II-ADP, % of control (O2 consumption rate)",[10]; 20 µM,85 (45.5) % of control
same,"II-sub, % of control (O2 consumption rate)",[10]; 20 µM,116 (19.1) % of control
same,"I-ADP, % of control (O2 consumption rate)",[10]; 100 µM,77 (35.3) % of control
same,"I-sub, % of control (O2 consumption rate)",[10]; 100 µM,172 (26.6) % of control
same,"II-ADP, % of control (O2 consumption rate)",[10]; 100 µM,56 (40.4) % of control
same,"II-sub, % of control (O2 consumption rate)",[10]; 100 µM,114 (35.8) % of control
same,Potential Mechanism,"[10]; mitochondrial respiration in isolated rat liver mitochondria, Clark type oxygen electrode, over tested concentrations",Uncoupler + Inhibitor
same,IC50,hNSC,34.1 ± 11.2 µM
same,Rat hepatocytes (efficacy) (MMP),rat primary hepatocytes,−101±2.09%
same,IC50,rat primary hepatocytes; [21],6.74 ± 2.89 µM
same,IC50,rat primary hepatocytes; [22],1.37 ± 0.7 µM
same,MMP assays efficacy (%) Rat Hepatocytes,rat primary hepatocytes,-72±21%
same,ARE (HepG2) EC50,[11],Inactive
same,EXT: mean difference in nematode size relative to plate controls,[12]; 0.5 µM,-0.01207
same,EXT: mean difference in nematode size relative to plate controls,[12]; 1 µM,-0.07266
same,EXT: mean difference in nematode size relative to plate controls,[12]; 5 µM,-0.05419
same,EXT: mean difference in nematode size relative to plate controls,[12]; 10 µM,-0.03134
same,EXT: mean difference in nematode size relative to plate controls,[12]; 25 µM,0.08842
same,EXT: mean difference in nematode size relative to plate controls,[12]; 50 µM,0.1943
same,LUM: mean difference in luminescence (ATP content) relative to plate controls,[13]; 0.5 µM,1.192
same,LUM: mean difference in luminescence (ATP content) relative to plate controls,[13]; 1 µM,-0.05262
same,LUM: mean difference in luminescence (ATP content) relative to plate controls,[13]; 5 µM,0.04332
same,LUM: mean difference in luminescence (ATP content) relative to plate controls,[13]; 10 µM,-0.02063
same,LUM: mean difference in luminescence (ATP content) relative to plate controls,[13]; 25 µM,-0.0762
same,LUM: mean difference in luminescence (ATP content) relative to plate controls,[13]; 50 µM,0.2026
same,LUM: mean difference in luminescence (ATP content) relative to plate controls,[13]; 75 µM,0.01325
same,LUM: mean difference in luminescence (ATP content) relative to plate controls,[13]; 100 µM,0.2556
same,p53 (HCT-116) EC50,[14],Inactive
same,Complex IV % inhibition (activity call),[15],Inactive
NNc1nc(-c2ccc([N+](=O)[O-])cc2)cs1 [2-Hydrazino-4-(4-nitrophenyl)thiazole],Parkin recruitment,[1],Active
same,EC50,"HepG2 cells [2]; Homo sapiens, HepG2, read-out: ROS (HepG2) EC50",15.4 ± 16.6 µM
same,Complex V % inhibition (activity call),[3],Inactive
same,Complex II % inhibition (activity call),[4],Inactive
same,Complex I % inhibition,[5],21.6±7.1 at 100μM %
same,Complex III % inhibition (activity call),[6],Inactive
same,IC50,HepG2 cells [7]; [16],14.2 ± 2.56 µM
same,IC50,HepG2 cells [7]; [17],12.1 ± 1.39 µM
same,IC50,HepG2 cells [7]; [18],1.26 µM
same,Emax,HepG2 cells [7],97%
same,MMP assays efficacy (%) qHTS-HepG2,HepG2 cells [8],-106±1%
same,IC50,HepG2 cells [8]; read-out: MMP assays IC50 (µM) qHTS-HepG2,1.6 ± 0.29 µM
same,IC50,HepG2 cells [9]; [19],48.1 ± 24.3 µM
same,IC50,HepG2 cells [9]; [20],35.5 ± 4.54 µM
same,IC50,hNSC,4.3 ± 1.42 µM
same,Rat hepatocytes (efficacy) (MMP),rat primary hepatocytes,−73.9±11.0%
same,IC50,rat primary hepatocytes; [21],20.9 ± 11.3 µM
same,IC50,rat primary hepatocytes; [22],7.9 ± 5.75 µM
same,MMP assays efficacy (%) Rat Hepatocytes,rat primary hepatocytes,-89±18%
same,EC50,"[11]; Homo sapiens, HepG2, read-out: ARE (HepG2) EC50",9.83 ± 3.79 µM
same,EXT: mean difference in nematode size relative to plate controls,[12]; 0.5 µM,0.08621
same,EXT: mean difference in nematode size relative to plate controls,[12]; 1 µM,0.08886
same,EXT: mean difference in nematode size relative to plate controls,[12]; 5 µM,0.126
same,EXT: mean difference in nematode size relative to plate controls,[12]; 10 µM,0.2572
same,EXT: mean difference in nematode size relative to plate controls,[12]; 25 µM,0.3181
same,EXT: mean difference in nematode size relative to plate controls,[12]; 50 µM,1.067
same,EXT: mean difference in nematode size relative to plate controls,[12]; 75 µM,1.594
same,EXT: mean difference in nematode size relative to plate controls,[12]; 100 µM,1.403
same,minimal effective concentration,"[12]; Caenorhabditis elegans, read-out: LEC EXT: lowest effect concentration for extinction, a measure of nematode size",25 µM
same,LUM: mean difference in luminescence (ATP content) relative to plate controls,[13]; 0.5 µM,-0.01284
same,LUM: mean difference in luminescence (ATP content) relative to plate controls,[13]; 1 µM,-0.00711
same,LUM: mean difference in luminescence (ATP content) relative to plate controls,[13]; 5 µM,0.1253
same,LUM: mean difference in luminescence (ATP content) relative to plate controls,[13]; 10 µM,-0.00409
same,LUM: mean difference in luminescence (ATP content) relative to plate controls,[13]; 25 µM,0.7526
same,LUM: mean difference in luminescence (ATP content) relative to plate controls,[13]; 50 µM,0.8462
same,LUM: mean difference in luminescence (ATP content) relative to plate controls,[13]; 75 µM,1.473
same,LUM: mean difference in luminescence (ATP content) relative to plate controls,[13]; 100 µM,1.784
same,minimal effective concentration,"[13]; Caenorhabditis elegans, read-out: LEC LUM: lowest effect concentration for luminescence, a measure of nematode ATP content",50 µM
same,p53 (HCT-116) EC50,[14],Inactive
same,Complex IV % inhibition (activity call),[15],Inactive
